In PMC9246205, “Olmesartan medoxomil self-microemulsifying drug delivery system reverses apoptosis and improves cell adhesion in trinitrobenzene sulfonic acid-induced colitis in rats” (Drug Delivery, 2022):

Tests used:
Type in all cases: in vivo, rat
[1] = test system: trinitrobenzene sulfonic acid-induced acute colitis; assay: Colonic macroscopic examination and colon weight/length ratio in TNBS-induced acute colitis; settings: TNBS-colitic rats, 7 days; for Colon weight/length ratio: mean ± SEM, n = 8
Protocol: (§1) The rats were food-deprived for a day, and colitis was induced as previously described (Wang et al., [2010]). Rats were anesthetized with ether and then a 5% TNBS (Sigma, St Louis, USA) (100 mg/kg) dissolved in 0.25 mL of 50% ethanol (v/v) (2:1) was administered by a polyethylene catheter introduced rectally to 6–8 cm from the anus. Rats were set in a head-down position for 30 seconds to avoid leakage of the solution (Lu et al., [2017]). Rats were randomly divided into seven groups (n = 8) including the normal control (NC) group, TNBS-colitic (positive control, PC) group, and five TNBS-colitic-treated groups which were orally given sulfasalazine (SSZ, 100 mg/kg/day, a reference treatment for IBD) (Yousefi-Ahmadipour et al., [2020]), low and high doses of OM (OML and OMH: 3.0 and 10.0 mg/kg/day (Nagib et al., [2013])) as a raw drug and as an OMS (OMSL and OMSH). OM was suspended in distilled water containing 0.25% carboxymethyl cellulose (Gorain et al., [2014]; Komesli et al., [2019]). The treatments were given for 7 days starting 4 hours after TNBS administration (Lu et al., [2017]). Rats were evaluated for the colitis activity score. At end of the treatment period, blood was collected, and rats were sacrificed. The colon was excised, cleaned with ice-cold saline, measured for weight and length, and the macroscopic appearance was evaluated. Parts of the colon were homogenized and activities/levels of myeloperoxidase (MPO), tumor necrosis factor-α (TNF-α), interleukin-6 (IL-6), malondialdehyde (MDA), and reduced glutathione (GSH) were measured. The concentrations of olmesartan in plasma and colonic homogenate were measured by high performance liquid chromatography/mass spectrometry (HPLC/MS). Samples of the colon were obtained for hematoxylin and eosin (H&E) and immunohistochemical staining (Joo et al., [2015])). All evaluations were made by blinded observers.
The colon was measured for weight and length. The degree of colonic damage regarding edema, ulceration, bleeding, and necrosis was expressed as mild, moderate, or severe (Ghia et al., [2006]).

[2] = test system: interleukin-6 (IL-6); assay: Colonic IL-6 (ELISA, colon homogenate); settings: TNBS-colitic rats, 7 days, mean ± SEM, n = 8
Protocol: as §1, with “At end of the treatment period, blood was collected, and rats were sacrificed.” left out, “Samples of the colon were obtained for hematoxylin and eosin (H&E) and immunohistochemical staining (Joo et al., [2015])). All evaluations were made by blinded observers.” left out
(§2) The colonic samples were homogenized using phosphate-buffered saline and a TissueLyser II (Qiagen) at 4 °C to yield a 10% homogenate. […] The colonic protein content was determined by using the Bradford method (Bradford, 1976). The activities and/or levels of MPO (a marker for neutrophil infiltration), TNF-α, IL-6, MDA, and GSH were measured using ELISA kits (MyBioSource, Inc. CA, USA) according to the manufacturer's guidelines and were expressed/mg protein.

[3] = test system: trinitrobenzene sulfonic acid-induced acute colitis; assay: Colonic histopathological examination (H&E); settings: TNBS-colitic rats, 7 days
Protocol: as §1, with “All evaluations were made by blinded observers.” left out
The colonic parts were fixed in 10% buffered formalin and embedded in paraffin. Sections (3–5 µm) were prepared and stained with H&E. The degree of inflammation was expressed as mild, moderate, or severe (Wirtz et al., [2007]).

[4] = test system: myeloperoxidase (MPO); assay: Colonic MPO activity (ELISA, colon homogenate); settings: TNBS-colitic rats, 7 days, mean ± SEM, n = 8
Protocol: as §1, with “At end of the treatment period, blood was collected, and rats were sacrificed.” left out, “Samples of the colon were obtained for hematoxylin and eosin (H&E) and immunohistochemical staining (Joo et al., [2015])). All evaluations were made by blinded observers.” left out
as §2

[5] = test system: caspase-3; assay: Colonic caspase-3 immunostaining; settings: TNBS-colitic rats, 7 days
Protocol: as §1, with “Samples of the colon were obtained for hematoxylin and eosin (H&E) and immunohistochemical staining (Joo et al., [2015])). All evaluations were made by blinded observers.” left out
(§3) Colonic sections were immunohistochemically stained for E-cadherin and Caspase-3 (ab13847; Abcam; 1:500 dilution). […] For MMP-9 immunostaining, the sections were probed with rabbit and mouse monoclonal anti-MMP-9 (1:150 dilution), detected with sheep anti-rabbit or anti-mouse IgG fluorescein isothiocyanate (1:500 dilution), and examined under a fluorescent microscope (Baugh et al., [1999]).

[6] = test system: trinitrobenzene sulfonic acid-induced acute colitis; assay: Disease activity score in TNBS-induced acute colitis; settings: TNBS-colitic rats, 7 days, mean ± SEM, n = 8
Protocol: as §1, with “All evaluations were made by blinded observers.” left out
The colitis activity index was measured to evaluate the activity of intestinal inflammation. The scores for weight loss, stool consistency, and fecal blood were calculated to give a disease activity score (DAS) as previously described (Wang et al., [2014]). […]

[7] = test system: malondialdehyde (MDA); assay: Colonic MDA (ELISA, colon homogenate); settings: TNBS-colitic rats, 7 days, mean ± SEM, n = 8
Protocol: The rats were food-deprived for a day, and colitis was induced as previously described (Wang et al., [2010]). Rats were anesthetized with ether and then a 5% TNBS (Sigma, St Louis, USA) (100 mg/kg) dissolved in 0.25 mL of 50% ethanol (v/v) (2:1) was administered by a polyethylene catheter introduced rectally to 6–8 cm from the anus. Rats were set in a head-down position for 30 seconds to avoid leakage of the solution (Lu et al., [2017]). […] Rats were evaluated for the colitis activity score. […] The colon was excised, cleaned with ice-cold saline, measured for weight and length, and the macroscopic appearance was evaluated. Parts of the colon were homogenized and activities/levels of myeloperoxidase (MPO), tumor necrosis factor-α (TNF-α), interleukin-6 (IL-6), malondialdehyde (MDA), and reduced glutathione (GSH) were measured. The concentrations of olmesartan in plasma and colonic homogenate were measured by high performance liquid chromatography/mass spectrometry (HPLC/MS). […]
The colonic samples were homogenized using phosphate-buffered saline and a TissueLyser II (Qiagen) at 4 °C to yield a 10% homogenate. […] The colonic protein content was determined by using the Bradford method (Bradford, 1976). […]

[8] = test system: E-cadherin, Bax, Bcl-2, cleaved caspase-3; assay: Western blot of colonic E-cadherin, Bax, Bcl-2 and cleaved caspase-3; settings: TNBS-colitic rats, 7 days
Protocol: as §1, with “observers. […]” for “observers.”

[9] = test system: matrix metalloproteinase-9 (MMP-9); assay: Colonic MMP-9 immunostaining; settings: TNBS-colitic rats, 7 days
Protocol: as §1, with “Samples of the colon were obtained for hematoxylin and eosin (H&E) and immunohistochemical staining (Joo et al., [2015])). All evaluations were made by blinded observers.” left out
as §3

[10] = test system: tumor necrosis factor-α (TNF-α); assay: Colonic TNF-α (ELISA, colon homogenate); settings: TNBS-colitic rats, 7 days, mean ± SEM, n = 8
Protocol: as §1, with “At end of the treatment period, blood was collected, and rats were sacrificed.” left out, “Samples of the colon were obtained for hematoxylin and eosin (H&E) and immunohistochemical staining (Joo et al., [2015])). All evaluations were made by blinded observers.” left out
as §2

[11] = test system: E-cadherin; assay: Colonic E-cadherin immunostaining; settings: TNBS-colitic rats, 7 days
Protocol: as §1, with “Samples of the colon were obtained for hematoxylin and eosin (H&E) and immunohistochemical staining (Joo et al., [2015])). All evaluations were made by blinded observers.” left out
as §3

[12] = test system: reduced glutathione (GSH); assay: Colonic GSH (ELISA, colon homogenate); settings: TNBS-colitic rats, 7 days, mean ± SEM, n = 8
Protocol: as §1, with “At end of the treatment period, blood was collected, and rats were sacrificed.” left out, “Samples of the colon were obtained for hematoxylin and eosin (H&E) and immunohistochemical staining (Joo et al., [2015])). All evaluations were made by blinded observers.” left out
as §2

[13] = high dose 10.0 mg/kg/day orally

`CCCc1nc(C(C)(C)O)c(C(=O)OCc2oc(=O)oc2C)n1Cc1ccc(-c2ccccc2-c2nnn[nH]2)cc1` [OM, Olmesartan medoxomil] was tested, and the “colonic macroscopic appearance (damage)” value [1, 13] was “moderate improvement”, the Colon weight/length ratio [1, 13] was 121.50 ± 6.91 # mg/cm and the “colonic macroscopic appearance (damage)” value ([1]; low dose 3.0 mg/kg/day orally) was “mild improvement”. For the same molecule, the Colon weight/length ratio ([1]; low dose 3.0 mg/kg/day orally) was 176.63 ± 3.49 ^ mg/cm, the IL-6 [2, 13] was 122.43 ± 4.29 # pg/mg protein and the IL-6 ([2]; low dose 3.0 mg/kg/day orally) was 160.57 ± 5.73 ^ pg/mg protein. The “colonic histopathological damage (H&E)” value [3, 13] was “moderate improvement”, the “colonic histopathological damage (H&E)” value ([3]; low dose 3.0 mg/kg/day orally) was “mild improvement” and the MPO activity [4, 13] was 14.52 ± 0.61 # U/mg protein. The MPO activity ([4]; low dose 3.0 mg/kg/day orally) was 20.90 ± 1.06 ^ U/mg protein, the “colonic caspase-3 expression (immunostaining)” value (from here on “colonic caspase-3 expression”) [5, 13] was “moderate improvement” and the “colonic caspase-3 expression” value ([5]; low dose 3.0 mg/kg/day orally) was “mild improvement”. The Disease activity score [6, 13] was 3.01 ± 0.25 #, the Disease activity score ([6]; low dose 3.0 mg/kg/day orally) was 5.69 ± 0.26 ^ and the MDA [7, 13] was 149.57 ± 2.26 # nmol/mg protein. The MDA ([7]; low dose 3.0 mg/kg/day orally) was 221.25 ± 6.23 ^ nmol/mg protein, the “protein expression of colonic E-cadherin, Bax, Bcl-2, cleaved caspase-3 and Bcl-2/Bax ratio (Western blot)” value [8, 13] was “moderate improvements” and the “protein expression of colonic E-cadherin, Bax, Bcl-2, cleaved caspase-3 and Bcl-2/Bax ratio (Western blot)” value ([8]; low dose 3.0 mg/kg/day orally) was “mild improvement”. The “colonic MMP-9 overexpression (immunostaining)” value (shortened to “colonic MMP-9 overexpression”) [9, 13] was “moderate improvement”, the “colonic MMP-9 overexpression” value ([9]; low dose 3.0 mg/kg/day orally) was “mild improvement” and the TNF-α [10, 13] was 51.45 ± 2.47 # pg/mg protein. The TNF-α ([10]; low dose 3.0 mg/kg/day orally) was 69.98 ± 3.50 ^ pg/mg protein, the “colonic E-cadherin expression (immunostaining)” value (“colonic E-cadherin expression” below) [11, 13] was “moderate improvement” and the “colonic E-cadherin expression” value ([11]; low dose 3.0 mg/kg/day orally) was “mild improvement”. The GSH [12, 13] was 29.03 ± 1.44 # nmol/mg protein and the GSH ([12]; low dose 3.0 mg/kg/day orally) was 19.77 ± 0.55 ^ nmol/mg protein.

For `O=C(O)c1cc(/N=N/c2ccc(S(=O)(=O)Nc3ccccn3)cc2)ccc1O` [SSZ, sulfasalazine], the “colonic macroscopic appearance (damage)” value ([1]; 100 mg/kg/day orally) was “greatly improved”, the Colon weight/length ratio ([1]; 100 mg/kg/day orally) was 78.23 ± 2.11 $ mg/cm and the IL-6 ([2]; 100 mg/kg/day orally) was 65.06 ± 1.46 $ pg/mg protein. The “colonic histopathological damage (H&E)” value ([3]; 100 mg/kg/day orally) was “nearly normalized the colonic damage”, the MPO activity ([4]; 100 mg/kg/day orally) was 8.01 ± 0.30 $, @ U/mg protein and the “colonic caspase-3 expression” value ([5]; 100 mg/kg/day orally) was “greatly decreased and nearly normalized”. The Disease activity score ([6]; 100 mg/kg/day orally) was 0.45 ± 0.06 $, the “protein expression of colonic E-cadherin, Bax, Bcl-2, cleaved caspase-3 and Bcl-2/Bax ratio (Western blot)” value ([8]; 100 mg/kg/day orally) was “marked improvement” and the “colonic MMP-9 overexpression” value ([9]; 100 mg/kg/day orally) was “marked improvement”. The TNF-α ([10]; 100 mg/kg/day orally) was 20.49 ± 0.73 $ pg/mg protein, the “colonic E-cadherin expression” value ([11]; 100 mg/kg/day orally) was “greatly upregulated and nearly normalized” and the GSH ([12]; 100 mg/kg/day orally) was 39.75 ± 1.38 $ nmol/mg protein.
